# Measured values: publication PMC3311999 (2011)
# Molecular target: PI3K (PIK3CA/PIK3R1) (Homo sapiens, UniProt P42336)
# Assay: Michaelis-Menten kinetics
# Assay type: biochemical
# PI3K (PIK3CA/PIK3R1), sequence (P42336 whole entry): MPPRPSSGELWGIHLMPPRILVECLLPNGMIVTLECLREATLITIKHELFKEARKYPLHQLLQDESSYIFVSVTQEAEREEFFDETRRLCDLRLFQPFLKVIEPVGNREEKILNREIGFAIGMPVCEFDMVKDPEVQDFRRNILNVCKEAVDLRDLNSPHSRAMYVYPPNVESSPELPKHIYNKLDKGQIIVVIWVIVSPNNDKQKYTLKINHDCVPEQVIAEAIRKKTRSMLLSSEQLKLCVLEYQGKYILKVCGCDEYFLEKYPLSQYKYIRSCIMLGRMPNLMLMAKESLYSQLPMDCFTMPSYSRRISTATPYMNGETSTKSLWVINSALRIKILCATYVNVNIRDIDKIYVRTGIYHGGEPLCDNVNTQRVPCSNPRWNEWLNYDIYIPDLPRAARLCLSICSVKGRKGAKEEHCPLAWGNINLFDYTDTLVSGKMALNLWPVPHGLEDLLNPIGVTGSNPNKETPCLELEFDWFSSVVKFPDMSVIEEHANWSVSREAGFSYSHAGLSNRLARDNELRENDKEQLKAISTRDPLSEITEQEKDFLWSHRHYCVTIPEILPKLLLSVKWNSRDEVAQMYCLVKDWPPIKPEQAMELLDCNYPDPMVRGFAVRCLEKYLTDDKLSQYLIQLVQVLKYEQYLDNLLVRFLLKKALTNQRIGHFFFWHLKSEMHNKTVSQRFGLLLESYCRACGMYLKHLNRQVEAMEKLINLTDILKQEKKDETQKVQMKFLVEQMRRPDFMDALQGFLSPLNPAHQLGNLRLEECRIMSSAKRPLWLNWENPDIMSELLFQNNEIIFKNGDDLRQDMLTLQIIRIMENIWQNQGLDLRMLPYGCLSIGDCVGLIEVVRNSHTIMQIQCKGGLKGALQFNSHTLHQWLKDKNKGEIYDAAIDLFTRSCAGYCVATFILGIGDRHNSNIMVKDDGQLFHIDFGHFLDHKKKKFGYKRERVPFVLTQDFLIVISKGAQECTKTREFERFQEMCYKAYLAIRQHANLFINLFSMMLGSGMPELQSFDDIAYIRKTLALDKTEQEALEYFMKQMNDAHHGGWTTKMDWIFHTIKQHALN
# PI3K (PIK3CA/PIK3R1), sequence (P27986 2-724 partner): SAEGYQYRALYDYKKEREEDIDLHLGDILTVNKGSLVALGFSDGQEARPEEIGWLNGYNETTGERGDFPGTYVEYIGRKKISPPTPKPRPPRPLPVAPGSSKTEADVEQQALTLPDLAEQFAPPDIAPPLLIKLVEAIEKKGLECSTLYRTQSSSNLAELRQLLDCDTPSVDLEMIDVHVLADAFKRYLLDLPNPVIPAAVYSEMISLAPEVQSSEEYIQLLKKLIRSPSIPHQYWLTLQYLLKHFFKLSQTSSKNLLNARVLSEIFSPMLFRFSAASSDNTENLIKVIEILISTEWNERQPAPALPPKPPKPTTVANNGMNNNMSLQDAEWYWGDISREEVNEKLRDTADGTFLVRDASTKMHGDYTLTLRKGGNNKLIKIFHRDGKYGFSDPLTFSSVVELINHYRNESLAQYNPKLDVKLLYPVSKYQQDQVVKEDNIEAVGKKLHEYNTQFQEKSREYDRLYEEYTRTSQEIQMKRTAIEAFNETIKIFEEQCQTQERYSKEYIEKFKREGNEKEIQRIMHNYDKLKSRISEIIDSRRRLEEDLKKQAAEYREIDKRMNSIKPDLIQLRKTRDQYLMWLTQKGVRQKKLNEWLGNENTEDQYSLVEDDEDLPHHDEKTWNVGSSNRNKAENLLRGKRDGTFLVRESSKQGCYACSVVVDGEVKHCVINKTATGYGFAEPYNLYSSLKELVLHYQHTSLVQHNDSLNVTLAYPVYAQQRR
row,Substance,Km
1,FL-PIP2,44.8 ± 9.8 µM
2,BODIPY-PIP2,68.7 ± 5.2 µM
